In general, IC50 refers to the concentration that inhibits the measured activity by half.

Results on eight molecules are retold here after patent US9555038B2, “Heterocycle-substituted tetracyclic compounds and methods of use thereof for the treatment of viral diseases” (Merck Sharp & Dohme Corp., priority 2013, dated 2017).

One assay deals with HCV replicon 1A. The assay is described as follows: Cell-based HCV Replicon Assay A, replicon 1A. In outline: (§1)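 2000 cells/well; 10 serial dilutions, top concentration 333.3 nM to 1.667 nM; 0.5% DMSO, 5% FBS; 3 days; lysis; multiplex TaqMan RT-PCR (NS5B/Neo plus cyclophilin), RNA from linear Ct standard curves.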
On the technique in general: A replicon is a self-replicating genome or part of one, used to study replication in cells.

The next assay deals with HCV replicon 1AQ30D. Briefly: Cell-based HCV Replicon Assay B, replicon 1AQ30D. In outline: (§2)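 EC50 defined as the drug concentration giving a CT increase of 1 above projected baseline, from real-time RT-PCR of replicon RNA using genotype-specific primers and probes. Cells were seeded in 5% FBS, dosed after 24 h and incubated 3 days before lysis.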
The next assay has as its system HCV replicon 1AY93H. Briefly: Cell-based HCV Replicon Assay A, replicon 1AY93H. The method, boiled down:
as §1

The next assay has as its system HCV replicon 1B. The assay is described as follows: Cell-based HCV Replicon Assay B, replicon 1B. In outline:
as §2

The next assay relates to HCV replicon 2B. The assay is described as follows: Cell-based HCV Replicon Assay A, replicon 2B. The method, boiled down: as §1
The mark [1] stands for this setting: Hepatitis C virus, read-out: 1A Q30D IC50 (nM), replicon 1AQ30D.
Setting [2] is: read-out: 1A Y93H IC50, replicon 1AY93H.
Where [3] appears, read: read-out: 1A Q30D IC50, replicon 1AQ30D.
Setting [4] is: replicon 1AQ30D, read-out: 1A Q30D IC50.
[5] abbreviates: replicon 1AY93H, read-out: 1A Y93H IC50.

The structures appear in SMILES notation. Read-outs that look alike come from different tables or passages of the source.

In the case of `COC(=O)NC(C(=O)N1[C@@H]2C[C@@H]2C[C@H]1c1ncc(-c2ccc3c(c2)cc2n3C(c3cnc(C4(C)CCCC4)s3)Oc3cc(-c4cnc([C@@H]5CCCN5C(=O)[C@@H](NC(=O)OC)C(C)C)[nH]4)cc(F)c3-2)[nH]1)C1CCOC(C)(C)C1` (single isomer, unassigned) [Compound 475], the IC50 turned out to be 0.0024 nM in the assay on HCV replicon 1A; 0.016 nM with HCV replicon 1AQ30D (setting [1]); 0.001 nM in the assay on HCV replicon 1AY93H (setting [2]); 0.0039 nM in the assay with HCV replicon 1B (Hepatitis C virus); 0.008 nM with HCV replicon 2B (read-out: 2B IC50, replicon 2B).
As to `COC(=O)NC(C(=O)N1[C@@H]2C[C@@H]2C[C@H]1c1ncc(-c2ccc3c(c2)cc2n3C(c3cnc(C4(C)CCCC4)s3)Oc3cc(-c4cnc([C@@H]5CCCN5C(=O)[C@@H](NC(=O)OC)C(C)C)[nH]4)cc(F)c3-2)[nH]1)C1CCOC(C)(C)C1` (single isomer, unassigned) [Compound 477], the 50% inhibitory concentration (IC50) with HCV replicon 1A was 0.0032 nM; with HCV replicon 1AQ30D (setting [3]), 0.009 nM; in the assay with HCV replicon 1AY93H (setting [2]) it was 0.003 nM; in the assay on HCV replicon 1B, 0.0037 nM; in the assay on HCV replicon 2B (read-out: 2B IC50, replicon 2B) it was 0.008 nM.
With `CCCOCc1ncc(C2Oc3cc(-c4cnc([C@@H]5CCCN5C(=O)[C@@H](NC(=O)OC)C(C)C)[nH]4)cc(F)c3-c3cc4cc(-c5cnc([C@@H]6CCCN6C(=O)[C@@H](NC(=O)OC)C(C)C)[nH]5)ccc4n32)s1` (single isomer, unassigned) [Compound 492], the IC50 was 0.0028 nM in the assay on HCV replicon 1A; 0.535 nM with HCV replicon 1AQ30D (setting [3]); 0.03 nM with HCV replicon 1AY93H (setting [2]); 0.0029 nM in the assay with HCV replicon 1B; 0.146 nM in the assay on HCV replicon 2B (read-out: 2B IC50, replicon 2B).
In the same order, the values of `CCCOCc1ncc(C2Oc3cc(-c4cnc([C@@H]5CCCN5C(=O)[C@@H](NC(=O)OC)C(C)C)[nH]4)cc(F)c3-c3cc4cc(-c5cnc([C@@H]6CCCN6C(=O)[C@@H](NC(=O)OC)C(C)C)[nH]5)ccc4n32)s1` (single isomer, unassigned) [Compound 499] are 0.0069 nM, 1.09 nM, 0.223 nM, 0.0088 nM and 0.622 nM.
Turning to `CCCOCc1ncc(C2Oc3cc(-c4cnc([C@@H]5CCCN5C(=O)[C@@H](NC(=O)OC)C(C)C)[nH]4)cc(F)c3-c3cc4cc(-c5cnc([C@@H]6CCCN6C(=O)[C@@H](NC(=O)OC)C(C)C)[nH]5)ccc4n32)s1` (single isomer, unassigned) [Compound 500], the IC50 with HCV replicon 1A came out at 0.0225 nM; in the assay with HCV replicon 1AQ30D (setting [3]), 16.7 nM; with HCV replicon 1AY93H (setting [2]), 7.79 nM; with HCV replicon 1B it was 0.0184 nM; with HCV replicon 2B (read-out: 2B IC50, replicon 2B) it was 1.67 nM.
On to `COC(=O)N[C@H](C(=O)N1CCC[C@H]1c1ncc(-c2cc(F)c3c(c2)OC(c2cnc(C4(C)CC4)s2)n2c-3cc3cc(-c4cnc([C@@H]5CCCN5C(=O)[C@@H](NC(=O)OC)C(C)C)[nH]4)ccc32)[nH]1)C(C)C` (single isomer, unassigned) [Compound 511], for which the 50% inhibitory concentration (IC50) in the assay on HCV replicon 1A (Hepatitis C virus) is 0.0097 nM; with HCV replicon 1AQ30D (setting [1]), 0.847 nM; in the assay with HCV replicon 1AY93H (setting [2]), 0.049 nM; in the assay with HCV replicon 1B, 0.0087 nM; in the assay on HCV replicon 2B (read-out: 2B IC50, replicon 2B) it was 0.095 nM.
In the case of `COC(=O)N[C@H](C(=O)N1CCC[C@H]1c1ncc(-c2cc(F)c3c(c2)OC(c2cnc(CC(C)C)s2)n2c-3cc3cc(-c4cnc([C@@H]5CCCN5C(=O)[C@@H](NC(=O)OC)C(C)C)[nH]4)ccc32)[nH]1)C(C)C` (single isomer, unassigned) [Compound 514], the IC50 in the assay with HCV replicon 1A stood at 0.0022 nM; with HCV replicon 1AQ30D (setting [4]) it was 0.174 nM; in the assay with HCV replicon 1AY93H (setting [5]) it was 0.012 nM; with HCV replicon 1B, 0.003 nM; in the assay with HCV replicon 2B (replicon 2B, read-out: 2B IC50) it was 0.035 nM.
For `COC(=O)N[C@H](C(=O)N1CCC[C@H]1c1ncc(-c2cc(F)c3c(c2)OC(c2cnc(C4CC4)s2)n2c-3cc3cc(-c4cnc([C@@H]5CC6(C)CC6N5C(=O)[C@@H](NC(=O)OC)C(C)C)[nH]4)ccc32)[nH]1)C(C)C` (single isomer, unassigned) [Compound 518], the IC50 in the assay with HCV replicon 1A was 0.0025 nM; in the assay on HCV replicon 1AQ30D (setting [4]), 0.099 nM; in the assay with HCV replicon 1AY93H (setting [5]) it was 0.016 nM; with HCV replicon 1B it was 0.0024 nM; with HCV replicon 2B (replicon 2B, read-out: 2B IC50) it was 0.015 nM.
